Measurements published in PubChem BioAssay (NCI).
“And” between values parts separate entries of the source, which are not always exact repeats. Identical values can stand only once.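 Each compound was tested at five concentrations against cells in 96-well plates for 48 hours. GI50 marks 50% less growth. TGI is the concentration that stops growth completely.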

How the values were obtained:
Assay in all cases: NCI tumour cell line growth inhibition, 48 h
SR leukemia = tested on: SR leukemia
OVCAR-5 ovarian = tested on: OVCAR-5 ovarian
MDA-MB-435 = tested on: MDA-MB-435
UACC-62 melanoma = tested on: UACC-62 melanoma
MOLT-4 leukemia = tested on: MOLT-4 leukemia
NCI/ADR-RES ovarian = tested on: NCI/ADR-RES ovarian
HL-60(TB) leukemia = tested on: HL-60(TB) leukemia
M14 melanoma = tested on: M14 melanoma

Structure (SMILES)	TGI (SR leukemia) [µM]	TGI (OVCAR-5 ovarian)	TGI (MDA-MB-435)	TGI (UACC-62 melanoma)	TGI (MOLT-4 leukemia)	TGI (NCI/ADR-RES ovarian)	TGI (HL-60(TB) leukemia)	TGI (M14 melanoma)	GI50 (SR leukemia) [µM]	GI50 (OVCAR-5 ovarian)	GI50 (MDA-MB-435)	GI50 (UACC-62 melanoma)	GI50 (MOLT-4 leukemia)	GI50 (NCI/ADR-RES ovarian)	GI50 (M14 melanoma)	GI50 (HL-60(TB) leukemia)
O=C(CCCn1ccnc1[N+](=O)[O-])NCCn1cnc([N+](=O)[O-])c1	> 100	> 100 µM	> 100 µM	> 100 µM	> 100 µM	> 100 µM	> 100 µM	> 100 µM								
C/C1=C\CC[C@@](C)(O)[C@H]2C[C@H](CC/C(C)=C/CC1)C1(CC1)C(=O)O2	32.6	80 µM	79.1 µM	99.8 µM	55.9 µM	57.4 µM		> 100 µM	14.1	31.4 µM	25.4 µM	23.9 µM	16.6 µM	23.6 µM	31.4 µM	
COC(=O)Nc1nc2c(OC)c(OC)c(OC)cc2[nH]1	> 75.7	> 100 µM	5.71 µM	> 100 µM	> 100 µM	97.6 µM	> 89.5 µM	> 100 µM	3.39	49.6 µM	2.09 µM	13.3 µM	67.2 µM	8.91 µM	8.9 µM	6.33 µM
CC(=O)OCCC/C(=C\c1ccc2ccccc2c1)[N+](=O)[O-]	> 100	3.42 µM	3.77 µM	2.98 µM	> 100 µM	8.67 µM	> 100 µM	3.21 µM	1.67	1.75 µM	1.53 µM	1.47 µM	4.87 µM	2.69 µM	1.58 µM	> 100 µM
O=C1C2C(C(=O)[N]1[Hg][c]1ccccc1)C1(Cl)C(Cl)=C(Cl)C2(Cl)C1(Cl)Cl (stereo not drawn)	3.46	5.29 µM		2.72 µM	8.76 µM	8.97 µM	8.77 µM	2.43 µM	0.41	2.82 µM		1.37 µM	1.88 µM	2.69 µM	1.16 µM	2.51 µM
CC(C)(C)c1ccc(C(=O)N/N=C/c2ccc(O)cc2O)cc1	> 100	14.7 µM	21.6 µM	3.2 µM	14.9 µM	19.3 µM	8.27 µM	9.83 µM	0.317	0.661 µM	0.806 µM	0.363 µM	0.346 µM	0.351 µM	0.409 µM	0.411 µM
NC(=O)Nc1ccc2ncnc(Nc3ccc(Cl)cc3)c2c1	75.8	> 95 µM	44.6 µM	37.3 µM	84.7 µM	> 81.5 µM	64.4 µM	68.6 µM	21.3	15.8 µM	17.8 µM	14.3 µM	21.4 µM	18.3 µM	24.4 µM	25.9 µM
NC1=CC(=O)C(=O)c2cccnc21		34.3 µM	3.17 µM	3.79 µM	8.41 µM	24 µM	9.08 µM	6.29 µM		17.8 µM	1.74 µM	1.83 µM	3.15 µM	3.6 µM	1.83 µM	2.8 µM
OC(COc1ccc(Cl)cc1Cl)CN1CCCC1 (stereo not drawn)	> 100	> 100 µM	> 100 µM	50.1 µM	> 100 µM	> 100 µM	> 100 µM	41.1 µM								
CC12C=CC(C)(O1)C1C2c2ccccc2S1(=O)=O (stereo not drawn)	> 100	> 100 µM	> 100 µM	> 100 µM	> 100 µM	> 100 µM	> 100 µM	> 100 µM	15.6	> 100 µM	52.1 µM	> 100 µM	62.7 µM	> 100 µM	25 µM	> 100 µM
BrP(NC1CCCCCC1)(c1ccccc1)(c1ccccc1)c1ccccc1	> 100	52.7 µM	7.63 µM	15.9 µM		> 100 µM	13.8 µM	> 100 µM								
CCOC(=O)Nc1nc2c(F)c(F)c(F)cc2s1	> 100	> 100 µM	> 100 µM	> 100 µM	> 100 µM	> 100 µM	> 100 µM	> 100 µM	> 100	> 100 µM	> 100 µM	19.7 µM	> 100 µM	> 100 µM	> 100 µM	> 100 µM
COc1cc2c(cc1OCCCCCCNC(=O)c1cc3ccccc3[nH]1)N=CC1CCCN1C2=O (stereo not drawn)		> 100 µM	> 100 µM	> 100 µM	> 100 µM	> 100 µM	> 100 µM	> 100 µM		> 100 µM	39.3 µM	39.5 µM	31.6 µM	31.7 µM	65.5 µM	41.2 µM
COc1cc(Nc2ncc3c(n2)-c2ccc(Cl)cc2C(c2c(F)cccc2OC)=NC3)ccc1C(=O)O		> 77.7 µM		30.1 µM	> 75.9 µM	> 100 µM	> 68 µM	42.8 µM		7.54 µM		3.9 µM	8.09 µM	1.38 µM	13.6 µM	16.5 µM
COc1cc2c(cc1OCCCCC(=O)Nc1ccc(-c3nc4ccccc4s3)cc1)N=C[C@@H]1CCCN1C2=O	9.48	11.9 µM	3.45 µM	3.39 µM	5.52 µM	62.6 µM	6.31 µM	3.18 µM	0.548	3.56 µM	1.76 µM	1.73 µM	1.63 µM	10.9 µM	1.55 µM	1.77 µM
COc1ccc(N2CCN(CC(=O)N3CCN(c4nnc(-c5ccccc5)c(-c5ccccc5)n4)CC3)CC2)cc1	6.97	> 100 µM	> 100 µM		> 71 µM	> 100 µM	> 43.2 µM	> 100 µM	2.41	> 100 µM	5.48 µM		4.79 µM	8.68 µM	17 µM	6.03 µM
COC(=O)c1[nH]nc(-c2ccccc2)c1N1CCCCC1	> 100	> 100 µM	> 100 µM	49.2 µM	> 100 µM	58.5 µM	> 100 µM	> 100 µM	46.5	51.7 µM	64.7 µM	17.3 µM	62.6 µM	22.8 µM	57 µM	> 100 µM

Structure (SMILES)	TGI (SR leukemia) [µM]	TGI (OVCAR-5 ovarian)	TGI (MDA-MB-435)	TGI (UACC-62 melanoma)	TGI (MOLT-4 leukemia)	TGI (NCI/ADR-RES ovarian)	TGI (HL-60(TB) leukemia)	TGI (M14 melanoma)	GI50 (SR leukemia) [µM]	GI50 (OVCAR-5 ovarian)	GI50 (MDA-MB-435)	GI50 (UACC-62 melanoma)	GI50 (MOLT-4 leukemia)	GI50 (NCI/ADR-RES ovarian)	GI50 (M14 melanoma)	GI50 (HL-60(TB) leukemia)
C[C@@H]1CN(Cc2ccc(/C=C/c3n[nH]c4ccc5nc(-c6cn[nH]c6C(F)(F)F)c6c(c5c34)CCCC6)cc2)C[C@H](C)O1		16.2 µM	21.2 µM	19.3 µM	23.2 µM	19.9 µM	28.5 µM	14.6 µM		4.06 µM	6.81 µM	5.73 µM	2.6 µM	4.76 µM	3.19 µM	6.32 µM
Nc1c(C(=O)Nc2cccc3ccccc23)sc2nc3c(cc12)CCCC3	6.38	> 100 µM		> 100 µM	> 100 µM	> 100 µM	0.802 µM	> 100 µM	0.267	> 100 µM		0.716 µM	0.637 µM	0.833 µM	0.464 µM	0.233 µM
COc1cc(C2c3cc4c(cc3C3OC(=O)C2C3CO)OCO4)cc(OC)c1OC (stereo not drawn)		> 100 µM	0.0374 µM	> 100 µM	> 100 µM	0.0607 µM	0.0748 µM	> 100 µM		0.0539 µM	0.01 µM	< 0.0136 µM	0.0385 µM	0.0181 µM	0.0333 µM	0.0207 µM
O=S(=O)(NC(=S)Nc1ccccc1)c1ccc(N2N=C3c4ccccc4CC3C2c2ccc(Cl)cc2)cc1 (stereo not drawn)	36.6		> 100 µM	38.8 µM	39.3 µM		46.2 µM	> 100 µM	14.7		44.8 µM	18.3 µM	15.9 µM		36.4 µM	21 µM
Cc1cc2nc3ccc(N=Nc4ccc(N(C)C)cc4)cc3n(-c3ccccc3)c-2cc1=N	0.394	1.55 µM	0.165 µM		1.92 µM	3.13 µM		0.239 µM	0.0208	0.0486 µM	0.0402 µM		0.0146 µM	0.279 µM	0.0657 µM	0.00334 µM and 0.0119 µM
CSc1nc(Cl)c(Br)c(Nc2c[nH]c(=O)[nH]c2=O)n1			83.7 µM	31.4 µM	43.6 µM	43.3 µM	5.47 µM	> 100 µM								
Cc1cc(N(CCCNc2ccnc3cc(Cl)ccc23)Cc2cccs2)nc(Cl)n1		24.3 µM	15.8 µM	21 µM	22.9 µM	28.5 µM		4.54 µM		5.9 µM	4 µM	5.15 µM	2.72 µM	2.64 µM	1.81 µM	
CCN(CC)c1ccc(/C=C/C(=O)c2cccc(NS(C)(=O)=O)c2)cc1		> 100 µM	> 100 µM		> 100 µM		> 100 µM	> 100 µM		35 µM	3.29 µM		4.09 µM		4.1 µM	20 µM
N/C(=N\OC(=O)NC(Cl)=C(Cl)Cl)c1cc(C(F)(F)F)cc(C(F)(F)F)c1	26.2	38.3 µM	48.5 µM		29.6 µM	47.2 µM	30 µM	70.4 µM								
CN(C)CCCNC(=O)c1cc2c3ccccc3[nH]c2c2ncccc12	67.1	> 100 µM	23.4 µM	30.1 µM	> 100 µM	66.1 µM	41.7 µM		14.5	20.3 µM	11.1 µM	16 µM	8.78 µM	19.2 µM		16 µM
CC(C)[C@@H](C(=O)O[C@@H]1/C=C/C(=O)O[C@@H](C)CCC/C=C/[C@@H]2C[C@H](O)C[C@H]21)[N+](C)(C)C		> 100 µM	> 100 µM	> 100 µM	> 100 µM	> 100 µM	> 100 µM	> 100 µM		> 100 µM	> 100 µM	> 100 µM	> 100 µM	> 100 µM	> 100 µM	> 100 µM
COc1ccc(/C=C/c2nc(N3CCOCC3)c3cc(F)c(F)cc3n2)cc1OC		> 100 µM	> 100 µM	> 100 µM	> 100 µM	> 100 µM	> 100 µM	26.8 µM		6.54 µM	3.18 µM	3.55 µM	4.11 µM	4.09 µM	2.75 µM	4 µM
COc1ccc(C(=O)Nc2ncc(Cc3ccc(F)cc3)s2)cc1	> 100	99.6 µM		> 94.4 µM	> 100 µM	> 100 µM	0.169 µM	> 100 µM	0.0336	0.406 µM		0.0469 µM	0.0574 µM	0.0511 µM	0.0378 µM	0.0315 µM
CC(=O)NNC(=O)c1nn(-c2ccc(Cl)cc2)cc1OC(C)=O		> 100 µM	> 100 µM	> 65.3 µM	> 100 µM	69.7 µM		49.7 µM		> 83.5 µM	30.3 µM	19.8 µM	> 21 µM	17 µM	14.2 µM	
CC1=C[C@H]2c3c(c(O)c(O)c4oc5cc(O)cc(O)c5c(=O)c34)[C@H](c3cc(O)c(O)c4oc5cc(O)cc(O)c5c(=O)c34)[C@H]2C(C)(C)C1		10.5 µM and 6.58 µM	2.67 µM and 3.12 µM	2.59 µM and 3.07 µM	3.31 µM and 12.9 µM	34.9 µM and 25.4 µM	5.72 µM and 10.6 µM	5.19 µM and 4.93 µM		2.71 µM and 2.1 µM	0.962 µM and 1.29 µM	1.18 µM and 1.31 µM	0.764 µM and 1.92 µM	8.48 µM and 3.63 µM	1.59 µM and 1.62 µM	2.04 µM and 2.1 µM
COC(=O)C1CC2(c3ccc(C)cc3)C(c3ccc(C)cc3)=C(c3ccc(C)cc3)C1(c1ccc(C)cc1)S2=O (stereo not drawn)		> 100 µM	> 100 µM	> 100 µM	> 100 µM	> 100 µM		> 100 µM		> 100 µM	> 100 µM	> 100 µM	> 100 µM	85.5 µM	> 100 µM	
Cc1c(N2C(=O)/C(=C\c3ccc(O)cc3)N=C2c2ccccc2)c(=O)n(-c2ccccc2)n1C		> 100 µM	> 100 µM	> 100 µM	> 100 µM	> 100 µM	> 100 µM	> 100 µM		> 100 µM	> 100 µM	> 100 µM	> 100 µM	> 100 µM	> 100 µM	> 100 µM
